Data reported in paper doi:10.1101/2025.09.23.678079v1 (biorxiv, 2025).
Converted amounts (≈) assume the structure as drawn. Values belong to the molecule of their own block, whether it stands above or below them.

Key:
HPK1 = HPK1 (Homo sapiens, UniProt Q92918); assay: HTRF enzymatic assay; type: biochemical
in vitro [1] = conditions: rat, plasma
CYP2C19 = CYP2C19 (Homo sapiens, UniProt P33261); assay: in vitro
in vitro [2] = conditions: human, Caco-2
PXR = biological target: T1, PXR (Homo sapiens, UniProt O75469); assay: in vitro
T1 sequence (O75469 1-434): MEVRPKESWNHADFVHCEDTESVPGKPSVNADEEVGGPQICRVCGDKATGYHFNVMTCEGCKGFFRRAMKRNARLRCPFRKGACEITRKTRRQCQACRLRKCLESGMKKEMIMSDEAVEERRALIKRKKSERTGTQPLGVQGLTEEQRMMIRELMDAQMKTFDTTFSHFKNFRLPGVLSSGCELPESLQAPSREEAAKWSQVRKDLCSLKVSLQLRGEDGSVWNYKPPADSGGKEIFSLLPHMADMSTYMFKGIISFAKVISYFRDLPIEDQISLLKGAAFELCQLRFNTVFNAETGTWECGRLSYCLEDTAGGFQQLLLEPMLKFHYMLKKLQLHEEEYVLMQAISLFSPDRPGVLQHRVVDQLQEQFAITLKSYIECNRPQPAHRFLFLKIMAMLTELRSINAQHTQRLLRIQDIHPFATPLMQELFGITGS

human primary T cells = assay: cells; conditions: T-cell, read-out: IL-2 increase EC50 (nM)
CYP2D6 = CYP2D6 (Homo sapiens, UniProt P10635); assay: in vitro
Sequence of CYP2D6 (P10635 whole entry): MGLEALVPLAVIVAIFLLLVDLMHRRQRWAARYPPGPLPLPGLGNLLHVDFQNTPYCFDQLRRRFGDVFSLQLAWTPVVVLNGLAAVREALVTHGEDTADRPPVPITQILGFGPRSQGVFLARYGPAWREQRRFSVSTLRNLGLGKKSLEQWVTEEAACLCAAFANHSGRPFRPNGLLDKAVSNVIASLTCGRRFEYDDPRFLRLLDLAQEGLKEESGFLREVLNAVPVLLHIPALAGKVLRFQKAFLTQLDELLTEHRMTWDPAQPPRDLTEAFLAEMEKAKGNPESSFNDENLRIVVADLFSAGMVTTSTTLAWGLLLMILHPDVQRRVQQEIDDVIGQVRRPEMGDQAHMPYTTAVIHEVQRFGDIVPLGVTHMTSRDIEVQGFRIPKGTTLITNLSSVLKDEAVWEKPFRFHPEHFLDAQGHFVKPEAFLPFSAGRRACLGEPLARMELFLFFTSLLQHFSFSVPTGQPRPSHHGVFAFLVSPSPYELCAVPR

hERG [3] = biological target: T2, hERG (Homo sapiens, UniProt Q12809, species not given); assay: in vitro
T2 sequence (Q12809 whole entry): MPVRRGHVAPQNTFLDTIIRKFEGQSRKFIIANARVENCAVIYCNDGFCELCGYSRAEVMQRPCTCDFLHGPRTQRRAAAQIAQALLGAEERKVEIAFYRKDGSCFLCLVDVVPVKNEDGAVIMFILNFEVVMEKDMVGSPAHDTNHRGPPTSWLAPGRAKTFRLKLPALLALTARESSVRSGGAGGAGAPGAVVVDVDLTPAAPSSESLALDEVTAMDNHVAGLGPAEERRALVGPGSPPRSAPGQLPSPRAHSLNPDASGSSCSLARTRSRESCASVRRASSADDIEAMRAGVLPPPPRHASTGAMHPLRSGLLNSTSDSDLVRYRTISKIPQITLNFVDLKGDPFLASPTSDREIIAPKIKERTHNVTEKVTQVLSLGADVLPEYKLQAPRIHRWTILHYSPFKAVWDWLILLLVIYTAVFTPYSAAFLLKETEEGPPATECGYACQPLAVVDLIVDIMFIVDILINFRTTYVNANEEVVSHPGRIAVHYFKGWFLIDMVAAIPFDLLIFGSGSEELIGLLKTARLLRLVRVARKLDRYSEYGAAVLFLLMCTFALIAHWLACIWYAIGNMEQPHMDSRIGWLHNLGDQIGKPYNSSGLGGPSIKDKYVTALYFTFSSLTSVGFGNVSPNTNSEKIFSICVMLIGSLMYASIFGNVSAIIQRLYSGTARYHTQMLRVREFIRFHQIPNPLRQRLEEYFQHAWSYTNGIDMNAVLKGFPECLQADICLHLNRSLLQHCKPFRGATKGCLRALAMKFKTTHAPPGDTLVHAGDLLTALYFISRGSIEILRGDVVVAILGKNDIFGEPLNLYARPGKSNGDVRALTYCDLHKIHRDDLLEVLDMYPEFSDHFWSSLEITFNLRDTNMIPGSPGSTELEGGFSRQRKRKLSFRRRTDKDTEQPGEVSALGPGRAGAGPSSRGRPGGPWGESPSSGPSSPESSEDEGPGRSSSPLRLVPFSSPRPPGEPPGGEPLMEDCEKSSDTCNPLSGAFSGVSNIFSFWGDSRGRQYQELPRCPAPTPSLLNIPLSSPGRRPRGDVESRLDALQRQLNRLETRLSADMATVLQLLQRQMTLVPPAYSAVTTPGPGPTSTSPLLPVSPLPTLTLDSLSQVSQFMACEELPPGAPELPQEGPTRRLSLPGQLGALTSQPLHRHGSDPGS

CYP2C9 = CYP2C9 (Homo sapiens, UniProt P11712); assay: in vitro
Sequence of CYP2C9 (P11712 whole entry): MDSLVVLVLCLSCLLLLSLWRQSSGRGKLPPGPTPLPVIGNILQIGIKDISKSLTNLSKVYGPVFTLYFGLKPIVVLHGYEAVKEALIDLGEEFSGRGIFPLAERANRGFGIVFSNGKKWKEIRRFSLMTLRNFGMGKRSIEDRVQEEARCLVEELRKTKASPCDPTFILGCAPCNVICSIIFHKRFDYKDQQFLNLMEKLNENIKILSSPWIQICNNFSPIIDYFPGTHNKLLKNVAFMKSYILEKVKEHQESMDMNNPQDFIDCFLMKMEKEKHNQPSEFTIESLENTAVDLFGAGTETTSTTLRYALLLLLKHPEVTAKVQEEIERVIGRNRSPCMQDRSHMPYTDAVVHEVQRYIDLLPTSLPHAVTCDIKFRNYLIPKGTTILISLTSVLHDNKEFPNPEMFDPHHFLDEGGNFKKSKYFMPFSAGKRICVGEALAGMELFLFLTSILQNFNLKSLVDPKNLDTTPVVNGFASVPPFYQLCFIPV

in vitro [4] = conditions: dog, hepatocytes
in vitro [5] = conditions: mouse, hepatocytes
in vitro [6] = assay: in vitro; parameters: species or system CT26; conditions: human, hepg2 cells
in vitro [7] = assay: in vitro; parameters: species or system HepG2; conditions: mouse, ct26 cells
in vitro [8] = conditions: mouse, plasma
in vitro [9] = conditions: human, hepatocytes
in vitro [10] = conditions: dog, plasma
in vitro [11] = conditions: rat, hepatocytes
physchem = conditions: aqueous buffer, pH 7.4, aqueous buffer
CYP1A2 = biological target: T3, CYP1A2 (Homo sapiens, UniProt P05177); assay: in vitro
T3 sequence (P05177 1-516): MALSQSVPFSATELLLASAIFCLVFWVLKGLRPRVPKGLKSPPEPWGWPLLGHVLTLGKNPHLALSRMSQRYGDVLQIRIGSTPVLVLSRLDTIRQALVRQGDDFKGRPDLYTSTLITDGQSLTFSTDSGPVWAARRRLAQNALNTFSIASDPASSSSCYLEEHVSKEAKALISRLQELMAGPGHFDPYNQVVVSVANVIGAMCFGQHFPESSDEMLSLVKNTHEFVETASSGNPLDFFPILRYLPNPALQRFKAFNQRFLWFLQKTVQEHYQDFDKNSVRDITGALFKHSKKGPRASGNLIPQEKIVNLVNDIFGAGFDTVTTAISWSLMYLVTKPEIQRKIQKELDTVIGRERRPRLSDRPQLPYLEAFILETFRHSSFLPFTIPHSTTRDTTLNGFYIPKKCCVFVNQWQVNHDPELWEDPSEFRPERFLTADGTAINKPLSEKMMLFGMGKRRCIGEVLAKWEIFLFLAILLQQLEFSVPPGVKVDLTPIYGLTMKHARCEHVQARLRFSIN

hERG [12] = biological target: T2, hERG; assay: in vitro; remark: listed apart in the source
in vitro [13] = conditions: human, plasma

Sequence of HPK1 (Q92918 whole entry): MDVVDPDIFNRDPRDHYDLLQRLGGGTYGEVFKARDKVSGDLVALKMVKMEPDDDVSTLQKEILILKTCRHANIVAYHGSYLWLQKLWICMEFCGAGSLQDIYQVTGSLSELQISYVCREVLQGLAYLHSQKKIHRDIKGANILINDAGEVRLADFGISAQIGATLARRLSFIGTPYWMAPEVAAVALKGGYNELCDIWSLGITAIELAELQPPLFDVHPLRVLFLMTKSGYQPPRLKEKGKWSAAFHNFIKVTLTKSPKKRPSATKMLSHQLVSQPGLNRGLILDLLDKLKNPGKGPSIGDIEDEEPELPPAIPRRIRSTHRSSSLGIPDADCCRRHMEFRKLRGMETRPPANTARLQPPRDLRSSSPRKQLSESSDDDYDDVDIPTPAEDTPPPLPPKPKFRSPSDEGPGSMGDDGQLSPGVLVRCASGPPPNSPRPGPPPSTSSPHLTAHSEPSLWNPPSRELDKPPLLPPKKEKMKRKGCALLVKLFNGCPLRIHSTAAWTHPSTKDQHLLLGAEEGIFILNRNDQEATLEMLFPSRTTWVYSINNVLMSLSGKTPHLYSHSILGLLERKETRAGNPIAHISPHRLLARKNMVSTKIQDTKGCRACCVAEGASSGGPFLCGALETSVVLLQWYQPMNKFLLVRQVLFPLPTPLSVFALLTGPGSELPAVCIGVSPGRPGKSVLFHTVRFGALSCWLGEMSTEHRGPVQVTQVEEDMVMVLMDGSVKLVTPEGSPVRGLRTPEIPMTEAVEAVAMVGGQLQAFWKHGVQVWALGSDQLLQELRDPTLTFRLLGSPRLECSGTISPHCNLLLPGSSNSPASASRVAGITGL
Sequence of CYP2C19 (P33261 whole entry): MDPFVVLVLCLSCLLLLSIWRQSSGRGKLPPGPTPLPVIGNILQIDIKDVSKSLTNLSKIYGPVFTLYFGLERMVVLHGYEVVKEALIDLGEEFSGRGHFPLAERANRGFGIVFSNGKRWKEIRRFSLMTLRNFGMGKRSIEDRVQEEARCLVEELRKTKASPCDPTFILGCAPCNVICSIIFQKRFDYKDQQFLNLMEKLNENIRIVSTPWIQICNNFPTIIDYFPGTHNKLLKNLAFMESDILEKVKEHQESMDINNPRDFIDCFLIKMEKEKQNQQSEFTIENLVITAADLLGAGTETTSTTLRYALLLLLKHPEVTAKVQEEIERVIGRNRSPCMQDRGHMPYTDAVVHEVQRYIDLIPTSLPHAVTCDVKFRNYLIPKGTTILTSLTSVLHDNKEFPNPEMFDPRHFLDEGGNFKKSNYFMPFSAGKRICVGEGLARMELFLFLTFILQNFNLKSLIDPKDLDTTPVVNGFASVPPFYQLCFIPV

IC50 (HPK1): 0.0093 µM
SMILES: COc1cccn2c(-c3cc4c(c5c3CCNC5=O)Nc3ccc(N5CCOCC5)cc3C4(C)C)cnc12 [compound 3, Cmpd. 3]

IC50 (HPK1): 0.0089 µM
SMILES: COc1cccn2c(-c3cc4c(c5c3CNC5=O)Nc3ccc(N5CCOCC5)cc3C4(C)C)cnc12 [compound 4, Cmpd. 4]

fraction unbound (in vitro [1]): 0.0386
inhibition at 10 µM (CYP2C19): 53.6%
efflux ratio (in vitro [2]): 2.72
activity at 1 µM (PXR): 2%
EC50 (human primary T cells): 9.5 nM
inhibition at 10 µM (CYP2D6): 20.7%
inhibition at 10 µM (CYP2C9): 24.5%
half-life (in vitro [4]): 3.42 h
half-life (in vitro [5]): 2.68 h
fraction unbound (in vitro [8]): 0.023
half-life (in vitro [9]): 37.7 h
fraction unbound (in vitro [10]): 0.0112
half-life (in vitro [11]): 3.93 h
solubility (physchem): 56.3 µM (≈ 28.1 µg/mL)
inhibition at 10 µM (CYP1A2): 9%
fraction unbound (in vitro [13]): 0.046
SMILES: CO[C@H]1CCCn2c(-c3cc4c(c5c3CNC5=O)Nc3ccc(N5CCOCC5)cc3C4(C)C)cnc21 [compound 6, Cmpd. 6]
IC50 (hERG [3]): 5.16 µM
CC50 (in vitro [6]): 3.29 µM
CC50 (in vitro [7]): 7.8 µM
inhibition at 10 µM (hERG [12]): 74.5%
